Results reported in patent publication US20180000802A1, “PHARMACEUTICAL COMPOSITION FOR PREVENTION AND TREATMENT OF MENTAL DISEASE WITH ENHANCED NMDAR FUNCTION” (INSTITUTE FOR BASIC SCIENCE, priority 2015, published 2018).
“Also recorded” adds a separate entry of the source.

How the values were obtained:
NMDAR [1] = assay: Electrophysiological measurement of NMDAR-LTD in hippocampal brain slices; format: cell-based; conditions: hippocampal brain slices of IRSp53 deficient mouse, weaker NMDAR-LTD than in normal mouse; memantine treatment
Protocol: (§1) To observe whether the memantine and the MPEP restore the NMDAR function observed on the hippocampus of the IRSp53 deficient mice to a normal range, the electrical signal flow of the synapses through the NMDAR was measured by the electrophysiological experiment.
When the NMDAR is activated by electrically stimulating the never cell, an ion transferred from the outside of the nerve cell to the inside of the nerve cell through the NMDAR according to the activation level exists, and by the ion concentration difference of the inside and outside of the cell, various proteins inside the cell are also activated, thereby showing electrical reaction of the nerve cell with respect to the stimulation. The state in which this reaction is maintained for 30 minutes or longer is called Long-term potentiation (LTP) and Long-term depression (LTD), and when the NMDAR is intensively activated, the LTP may be induced, and when the NMDAR is weakly activated a long-term weakening, LTD may be induced.
In the present experiment, the Long-term potentiation (LTP) and the Long-term depression experiments were conducted. First, the NMDAR properties of the nerve cell of the IRSp53 deficient mice were electrophysiologically measured. […]

IRSp53 deficient mouse = assay: Nerve cell firing of the medial prefrontal cortex in the anesthetized mouse; format: in vivo; conditions: IRSp53 deficient mice, urethane anesthesia, 10 mg/kg intraperitoneally, observed after 30 minutes
Protocol: (§2) The memantine was administered to the IRSp53 deficient mouse, and the synapse of the medial prefrontal cortex was structurally and functionally analyzed. In the experiment, the brain slices were not made, an anesthetic drug (1.5 g/kg) named Urethane was used on the mouse to perform the electrophysiological experiment in a condition in which the neural circuitry in the mouse is maintained, and the electrical signal firing of the nerve cell was observed, In detail, in the experiment, the mouse was anesthetized, a glass electrode for measuring the electrical signal was inserted in the medial prefrontal cortex and the hippocampus, and measured. A and I of FIG. 7 show the positions through which each electrode is inserted. From the result of comparing the nerve cell firing of the medial prefrontal cortex of the IRSp53 deficient mouse, in the IRSp53 deficient mouse, the nerve cell firing of the medial prefrontal cortex decreased. Specifically, in the IRSp53 deficient mouse, the nerve cell firing specific to the excitatory nerve cell decreased (B, C and D of FIG. 7).

IRSp53 deficient mice = assay: 3-chamber sociability test; format: in vivo, mouse; conditions: memantine 10 mg/kg, MPEP 30 mg/kg; for mice preference (sociability behavior) in the 3-chamber sociability test: intraperitoneal injection 30 minutes before the test, vs saline control; for sedation due to side effects: intraperitoneal injection
Protocol: For the experiment animals of the present invention, wild-type mice backcrossed into a C57BL/6J background and IRSp53 deficient mice were used. The mice were at 2-4 months of age. In addition, in the present invention, all of the experiments were conducted by maintaining a temperature of 20-22° C. and a humidity of 30-40% while the lights are turned on during 7:00 am to 7:00 pm. As the memantine, which is an NMDAR inhibitor and the MGluR inhibitor, the MPEP indirectly inhibiting the NMDAR is dissolved in physiological saline and used. The memantine is used in a concentration of 10 mg (10 mg/kg) per unit weight, and the MPEP is used in a concentration of 30 mg (30 mg/kg) per unit weight, and the drug was administered to the experiment mice by intraperitoneal injection before 30 minutes of every experiment. NMDAR was tested with respect to the sociability behavior of hyperactivated mice. The 3-chamber sociability test and the direct interaction test, which are the most widely used among the behavioral experiments for identifying sociability behavior of mice. The 3-chamber sociability test was conducted by using a behavior experiment box separated into 3 sections. […] A, B, and C of FIG. 1 show the measurement based on the box bottom, the horizontal side surface and the vertical side surface, respectively, and the experiment box was manufactured exposing that the top so the experiment may be photographed by a camera (FIG. 1). In the basic 3-chamber sociability test, a mouse (stranger) was placed in one side and an object (small toy block) without scent was placed in the other side, and the normal mouse (WT) and the deficient mouse were placed in the middle chamber to observe how much attention was given to the other mouse and explored and time was spent. The detailed experiment method of the present invention is described below. First, the wild-type mouse and the IRSp53 deficient mouse were prepared. In addition, before 10 minutes of the experiment, the mouse to be experimented was put into a soundproof booth in which the experiment was to be conducted. 10 minutes later, the holes in the inner wall were blocked and the mouse was put into the middle area. Another 10 minutes later, the holes were opened, and the mouse was allowed to move freely around the 3 chambers. […] During 10 minutes of experiment where the Stranger 1 and the object were placed, the time of the mouse staying at the two areas were measured. In addition, to measure the time of the actual mice exploring the stranger 1 or the object, the time when the nose of the mouse crosses over a virtual line 2 cm away from the plastic cup was measured. […]

[2] = tested on: wild-type mouse and IRSp53 deficient mouse; assay: Nerve cell firing of the hippocampus in the anesthetized mouse; format: in vivo; conditions: IRSp53 deficient mouse compared to wild-type mice after memantine injection
Protocol: as §2

NMDAR [3] = assay: NMDA/AMPA ratio, electrophysiology in brain slices; format: cell-based; conditions: IRSp53 deficient mouse, ratio increased vs wild-type; MPEP treatment
Protocol: as §1
In the present experiment, the Long-term potentiation (LTP) and the Long-term depression experiments were conducted. First, the NMDAR properties of the nerve cell of the IRSp53 deficient mice were electrophysiologically measured. The measurement was experimented and conducted by the method disclosed in the paper of Kim M H et al. (Kim, M. H. et al. Enhanced NMDA Receptor-Mediated Synaptic Transmission, Enhanced Long-Term Potentiation, and Impaired Learning and Memory in Mice Lacking IRSp53. J Neurosci 29, 1586-1595, doi:Doi 10.1523/Jneurosci.4306-08.2009 (2009)). The equipment used for the electrophysiological measurement was MultiClamp 700B amplifier and Axopatch 200B of Molecular Devices, and Clampex 9.2 and Clampfit 9 software of the same company were used. During the experiment, BX50WI microscope of Olympus was used.
In the present experiment, first, for all of the electrophysiological experiment, brain slices were made from the brains of the normal mice and the IRSp53 deficient mice. To make the slices, VT1200S model vibratome of Leica was used. […]

Row | SMILES | NMDAR-LTD (NMDAR [1]) | nerve cell firing of the medial prefrontal cortex (IRSp53 deficient mouse) | mice preference (sociability behavior) in the 3-chamber sociability test (IRSp53 deficient mice) | sedation due to side effects (IRSp53 deficient mice) | nerve cell firing change in the hippocampus [2] | NMDA/AMPA ratio (NMDAR [3])
1 | CC12CC3CC(C)(C1)CC(N)(C3)C2 [memantine] | restored | the drug showed good effects; also recorded: restored to the normal range | improved to a level of the wild-type mice | no sedation due to side effects | the firing was greater | –
2 | Cc1cccc(C#Cc2ccccc2)n1 [MPEP, 2-Methyl-6-(phenylethynyl)pyridine] | – | – | improved to a level of the wild-type mice | no sedation due to side effects | – | restored to the level of the wild-type mouse
